Values joined by “and” are separate entries in the source; they are usually repeats but may differ in a detail not shown here. Identical values can stand only once.
Assay: PK of compound of Formula (Ia) after single subcutaneous dose of solution formulations in Wistar Han rats
Type: in vivo
Conditions: SC 50 mg/kg; for concentration at 1 h / concentration at 3 h / concentration at 8 h: male, Wistar Han, rat, plasma, sc
Description: Formulations containing the compound of Formula (Ia), or a pharmaceutically acceptable salt thereof, were prepared as solutions and optionally administered subcutaneously or intramuscularly to rats, rabbits, and/or dogs.
(§1) A solution of about 400 mg/mL of the compound of Formula (Ia) having 19.14 w/w % water, 40.66 w/w % PEG 300, 35.20 w/w % of a sodium salt of a compound of Formula (Ia), and 5.00% ethanol was prepared. The solution was administered subcutaneously to male Wistar Han rats at a dose level of about 50 mg/kg and dose volume of 0.125 mL/kg and the pharmacokinetic (PK) profile was determined.
as §1, with “500” for “400”, “16.64” for “19.14”, “35.36” for “40.66”, “43.00” for “35.20”, “0.1” for “0.125”
(§2) A solution of about 400 mg/mL of the compound of Formula (Ia) having 17.00 w/w % water, 36.40 w/w % PEG 300, 35.20 w/w % of a sodium salt of a compound of Formula (Ia), 5.00 w/w % ethanol, and 6.40 w/w % poloxamer 188 was prepared. The solution was administered subcutaneously to male beagle dogs at a dose level of about 12 mg/kg and male Wistar Han rats at a dose level of about 50 mg/kg. The pharmacokinetic profiles were determined, and the results for dogs are summarized in Table and Table, while the results for rats are summarized in Table and Table below.
as §2, with “500” for “400”, “14.06” for “17.00”, “30.12” for “36.40”
A solution of about 300 mg/mL of the compound of Formula (Ia) having 23.33 w/w % water, 48.99 w/w % PEG 300, 26.47 w/w % of a sodium salt of a compound of Formula (Ia), and 1.21 w/w % poloxamer 188 was prepared. The solution was administered subcutaneously to male beagle dogs at a dose level of about 6 mg/kg and male Wistar Han rats at a dose level of about 50 mg/kg. The pharmacokinetic profiles were determined, and the results for dogs are summarized in Table and Table, while the results for rats are summarized in Table and Table below.
as §2, with “18.80” for “17.00”, “40.25” for “36.40”, “34.38” for “35.20”, “1.57” for “6.40”
as §2, with “500” for “400”, “16.29” for “17.00”, “34.88” for “36.40”, “41.92” for “35.20”, “1.91” for “6.40”
A solution of about 400 mg/mL of the compound of Formula (Ia) having 20.90 w/w % water, 44.72 w/w % PEG 300, and 34.38 w/w % of a sodium salt of a compound of Formula (Ia) was prepared. […]

Plasma concentration (0 h, individual rats, solution R, 400 mg/mL): BLQ | Plasma concentration (0 h, individual rats, solution S, 500 mg/mL): BLQ | Plasma concentration (0 h, individual rats, solution T, 400 mg/mL): BLQ | Plasma concentration (0 h, individual rats, solution U, 500 mg/mL): BLQ | Plasma concentration (0 h, individual rats, solution V, 300 mg/mL): BLQ | Plasma concentration (1.00 h, individual rats, solution R, 400 mg/mL, 50 mg/kg): 59.3 nM and 42.4 nM | Plasma concentration (3.00 h, individual rats, solution R, 400 mg/mL, 50 mg/kg): 164 nM and 104 nM | Plasma concentration (3.00 h, individual rats, solution S, 500 mg/mL, 50 mg/kg): 72.7 nM and 118 nM | Plasma concentration (8.00 h, individual rats, solution R, 400 mg/mL, 50 mg/kg): 131 nM and 84.1 nM | Plasma concentration (8.00 h, individual rats, solution S, 500 mg/mL, 50 mg/kg): 82.0 nM and 127 nM | Plasma concentration (24.0 h, individual rats, solution R, 400 mg/mL, 50 mg/kg): 194 nM and 125 nM | Plasma concentration (24.0 h, individual rats, solution S, 500 mg/mL, 50 mg/kg): 138 nM and 133 nM | Plasma concentration (48.0 h, individual rats, solution R, 400 mg/mL, 50 mg/kg): 162 nM and 107 nM | Plasma concentration (48.0 h, individual rats, solution S, 500 mg/mL, 50 mg/kg): 158 nM and 119 nM | Plasma concentration (72.0 h, individual rats, solution R, 400 mg/mL, 50 mg/kg): 154 nM and 123 nM | Plasma concentration (72.0 h, individual rats, solution S, 500 mg/mL, 50 mg/kg): 166 nM and 120 nM | Plasma concentration (96.0 h, individual rats, solution R, 400 mg/mL, 50 mg/kg): 162 nM and 112 nM | Plasma concentration (96.0 h, individual rats, solution S, 500 mg/mL, 50 mg/kg): 149 nM and 107 nM | Plasma concentration (168 h, individual rats, solution R, 400 mg/mL, 50 mg/kg): 166 nM and 124 nM | Plasma concentration (168 h, individual rats, solution S, 500 mg/mL, 50 mg/kg): 121 nM and 82.3 nM | Plasma concentration (336 h, individual rats, solution R, 400 mg/mL, 50 mg/kg): 275 nM and 256 nM | Plasma concentration (336 h, individual rats, solution S, 500 mg/mL, 50 mg/kg): 277 nM and 140 nM and 131 nM | Plasma concentration (504 h, individual rats, solution R, 400 mg/mL, 50 mg/kg): 319 nM and 393 nM | Plasma concentration (504 h, individual rats, solution S, 500 mg/mL, 50 mg/kg): 211 nM and 235 nM | Plasma concentration (672 h, individual rats, solution R, 400 mg/mL, 50 mg/kg): 286 nM and 442 nM | Plasma concentration (672 h, individual rats, solution S, 500 mg/mL, 50 mg/kg): 254 nM and 227 nM | Plasma concentration (840 h, individual rats, solution R, 400 mg/mL, 50 mg/kg): 313 nM and 443 nM | Plasma concentration (840 h, individual rats, solution S, 500 mg/mL, 50 mg/kg): 221 nM and 250 nM | Plasma concentration (1008 h, individual rats, solution R, 400 mg/mL, 50 mg/kg): 318 nM and 442 nM | Plasma concentration (1008 h, individual rats, solution S, 500 mg/mL, 50 mg/kg): 479 nM and 207 nM and 215 nM | Plasma concentration (1334 h, individual rats, solution R, 400 mg/mL, 50 mg/kg): 266 nM and 421 nM | Plasma concentration (1334 h, individual rats, solution S, 500 mg/mL, 50 mg/kg): 254 nM and 248 nM | Plasma concentration (1680 h, individual rats, solution R, 400 mg/mL, 50 mg/kg): 233 nM and 328 nM | Plasma concentration (1680 h, individual rats, solution S, 500 mg/mL, 50 mg/kg): 216 nM and 189 nM | Plasma concentration (2016 h, individual rats, solution R, 400 mg/mL, 50 mg/kg): 181 nM and 227 nM | Plasma concentration (2016 h, individual rats, solution S, 500 mg/mL, 50 mg/kg): 158 nM and 133 nM | Plasma concentration (2352 h, individual rats, solution R, 400 mg/mL, 50 mg/kg): 182 nM | Plasma concentration (2352 h, individual rats, solution S, 500 mg/mL, 50 mg/kg): 170 nM and 119 nM | Plasma concentration (2688 h, individual rats, solution R, 400 mg/mL, 50 mg/kg): 146 nM and 147 nM | Plasma concentration (2688 h, individual rats, solution S, 500 mg/mL, 50 mg/kg): 148 nM and 126 nM | Plasma concentration (3024 h, individual rats, solution R, 400 mg/mL, 50 mg/kg): 118 nM and 111 nM | Plasma concentration (3360 h, individual rats, solution R, 400 mg/mL, 50 mg/kg): 116 nM and 84.7 nM | Plasma concentration (3696 h, individual rats, solution R, 400 mg/mL, 50 mg/kg): 117 nM and 109 nM and 58.4 nM | Plasma concentration (4032 h, individual rats, solution R, 400 mg/mL, 50 mg/kg): 109 nM and 136 nM and 59.5 nM | Plasma concentration (4704 h, individual rats, solution R, 400 mg/mL, 50 mg/kg): 84.4 nM and 92.7 nM and 29.9 nM | Plasma concentration (5376 h, individual rats, solution R, 400 mg/mL, 50 mg/kg): 62.6 nM and 90.4 nM and 20.9 nM | Plasma concentration (6048 h, individual rats, solution R, 400 mg/mL, 50 mg/kg): 27.4 nM and 48.6 nM and 14.6 nM | Plasma concentration (6720 h, individual rats, solution R, 400 mg/mL, 50 mg/kg): 22.7 nM and 45.8 nM and 10.4 nM | Plasma concentration (7392 h, individual rats, solution R, 400 mg/mL, 50 mg/kg): 13.5 nM and 28.6 nM and 7.43 nM | Plasma concentration (8064 h, individual rats, solution R, 400 mg/mL, 50 mg/kg): 8.39 nM and 24.1 nM and 4.52 nM | concentration at 1 h (50 mg/kg, 1.00 h, individual rats, solution R, 400 mg/mL): 67.6 nM | concentration at 1 h (50 mg/kg, 1.00 h, individual rats, solution U, 500 mg/mL): 42.6 nM | concentration at 1 h (50 mg/kg, 1.00 h, individual rats, solution V, 300 mg/mL): 51.4 nM | concentration at 1 h (50 mg/kg, 1.00 h, mean, n = 3 rats, solution R, 400 mg/mL): 56.4 nM | concentration at 1 h (50 mg/kg, 1.00 h, mean, n = 3 rats, solution S, 500 mg/mL): 49.2 nM | concentration at 1 h (50 mg/kg, 1.00 h, mean, n = 3 rats, solution V, 300 mg/mL): 51.4 nM | concentration at 1 h (50 mg/kg, 1.00 h, mean, n = 5 rats, solution T, 400 mg/mL): 56.4 nM | concentration at 1 h (50 mg/kg, 1.00 h, mean, n = 5 rats, solution U, 500 mg/mL): 50.5 nM | concentration at 3 h (50 mg/kg, 3.00 h, individual rats, solution R, 400 mg/mL): 128 nM | concentration at 3 h (50 mg/kg, 3.00 h, individual rats, solution S, 500 mg/mL): 87.6 nM | concentration at 3 h (50 mg/kg, 3.00 h, individual rats, solution T, 400 mg/mL): 128 nM | concentration at 3 h (50 mg/kg, 3.00 h, individual rats, solution V, 300 mg/mL): 141 nM | concentration at 3 h (50 mg/kg, 3.00 h, mean, n = 3 rats, solution R, 400 mg/mL): 132 nM | concentration at 3 h (50 mg/kg, 3.00 h, mean, n = 3 rats, solution S, 500 mg/mL): 92.8 nM | concentration at 3 h (50 mg/kg, 3.00 h, mean, n = 3 rats, solution V, 300 mg/mL): 116 nM | concentration at 3 h (50 mg/kg, 3.00 h, mean, n = 5 rats, solution T, 400 mg/mL): 135 nM | concentration at 3 h (50 mg/kg, 3.00 h, mean, n = 5 rats, solution U, 500 mg/mL): 110 nM | concentration at 8 h (50 mg/kg, 8.00 h, individual rats, solution R, 400 mg/mL): 120 nM | concentration at 8 h (50 mg/kg, 8.00 h, individual rats, solution S, 500 mg/mL): 92 nM
Structure (SMILES): CC(C)(C#Cc1ccc(-c2ccc(Cl)c3c(NS(C)(=O)=O)nn(CC(F)(F)F)c23)c([C@H](Cc2cc(F)cc(F)c2)NC(=O)Cn2nc(C(F)(F)F)c3c2C(F)(F)[C@@H]2C[C@H]32)n1)S(C)(=O)=O [compound of Formula (Ia)]
